According to patent publication US8680281B2, “Lactam inhibitors of 11-β-hydroxysteroid dehydrogenase 1” (Vitae Pharmaceuticals, Inc., priority 2008, dated 2014):

Target: human 11β-HSD1 (Homo sapiens, UniProt P28845)
Experiment: Biological Test Example 1: inhibition of a microsomal preparation of 11β-HSD1 (SPA)
Format: biochemical
Settings: microsomes from CHO cells overexpressing human 11β-HSD1; for inhibition at 0.1 µM: at 100 nM; for IC50: read-out: IC50 Range

human 11β-HSD1, sequence (P28845 whole entry): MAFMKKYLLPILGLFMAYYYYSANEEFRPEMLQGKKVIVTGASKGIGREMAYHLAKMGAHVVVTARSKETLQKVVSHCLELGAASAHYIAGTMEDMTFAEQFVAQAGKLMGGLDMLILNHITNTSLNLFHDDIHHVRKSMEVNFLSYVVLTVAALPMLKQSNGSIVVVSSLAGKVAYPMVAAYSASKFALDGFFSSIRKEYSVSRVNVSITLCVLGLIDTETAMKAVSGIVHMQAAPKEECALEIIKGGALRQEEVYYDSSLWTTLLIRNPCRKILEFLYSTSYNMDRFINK

Structure (SMILES)	inhibition at 0.1 µM [%]	IC50 [nM]
CC[C@@H](c1ccc(Br)cc1)N1CC[C@@](CC(C)(C)O)(c2ccccc2)CC1=O (single isomer, unassigned) [EXAMPLE 6 Isomer 2]	82.6	< 100
C[C@@H](c1ccc(-c2ccc(=O)n(C)c2)cc1)N1CC[C@@](CCCO)(c2ccc(F)cc2)CC1=O (single isomer, unassigned) [EXAMPLE 5 Isomer 2]	10.7	> 100
C[C@@H](c1ccc(Br)cc1)N1CC[C@](CCC(N)=O)(c2ccc(F)cc2)CC1=O (single isomer, unassigned) [EXAMPLE 4 Isomer 1]	96.8	< 100
C[C@@H](c1ccc(-c2ccc(F)cc2)cc1)N1CC[C@](CCO)(c2ccccc2)CC1=O (single isomer, unassigned) [EXAMPLE 3 Isomer 1]	97.9	< 100
C[C@@H](c1ccc(-c2ccc(F)cc2)cc1)N1CC[C@@](CCO)(c2ccccc2)CC1=O (single isomer, unassigned) [EXAMPLE 3 Isomer 2]	61.3	< 100
C[C@@H](c1ccc(Br)cc1)N1CC[C@](CCO)(c2ccccc2)CC1=O (single isomer, unassigned) [EXAMPLE 2 Isomer 1]	101	< 100
C[C@@H](c1ccc(Br)cc1)N1CC[C@@](CCO)(c2ccccc2)CC1=O (single isomer, unassigned) [EXAMPLE 2 Isomer 2]	73.8	< 100
C[C@@H](c1ccc(Br)cc1)N1CC[C@](CC(C)(C)C#N)(c2ccccc2)CC1=O [EXAMPLE 10, 3-((S)-1-((S)-1-(4-bromophenyl)ethyl)-2-oxo-4-phenylpiperidin-4-yl)-2,2-dimethylpropanenitrile]	96	< 100
C[C@@H](c1ccc(Br)cc1)N1CC[C@](CC(C)(C)O)(c2ccccc2)CC1=O [EXAMPLE 7, (R)-1-((S)-1-(4-bromophenyl)ethyl)-4-(2-hydroxy-2-methylpropyl)-4-phenylpiperidin-2-one]	98	< 100
C[C@@H](c1ccc(-c2ccn(C)c(=O)c2)cc1)N1CC[C@](CC(C)(C)O)(c2ccccc2)CC1=O [EXAMPLE 8, 4-(4-((S)-1-((R)-4-(2-hydroxy-2-methylpropyl)-2-oxo-4-phenylpiperidin-1-yl)ethyl)phenyl)-1-methylpyridin-2(1H)-one]	93	< 100
C[C@@H](c1ccc(-c2ccc(=O)[nH]c2)cc1)N1CC[C@](CC(C)(C)O)(c2ccccc2)CC1=O [EXAMPLE 13, 5-(4-((S)-1-((R)-4-(2-hydroxy-2-methylpropyl)-2-oxo-4-phenylpiperidin-1-yl)ethyl)phenyl)pyridin-2(1H)-one]	94.3	< 100
C[C@@H](c1ccc(-c2ccc(=O)n(C)c2)cc1)N1CC[C@](CC(C)(C)O)(c2ccccc2)CC1=O [EXAMPLE 9, 5-(4-((S)-1-((R)-4-(2-hydroxy-2-methylpropyl)-2-oxo-4-phenylpiperidin-1-yl)ethyl)phenyl)-1-methylpyridin-2(1H)-one]	92.7	< 100
C[C@@H](c1ccc(Br)cc1)N1CC[C@@](CCC(N)=O)(c2ccc(F)cc2)CC1=O (single isomer, unassigned) [EXAMPLE 4 Isomer 2]	27.8	> 100
C[C@@H](c1ccc(-c2ccc(=O)n(C)c2)cc1)N1CC[C@](CCCO)(c2ccc(F)cc2)CC1=O (single isomer, unassigned) [EXAMPLE 5 Isomer 1]	94	< 100
CC[C@@H](c1ccc(Br)cc1)N1CC[C@](CC(C)(C)O)(c2ccccc2)CC1=O (single isomer, unassigned) [EXAMPLE 6 Isomer 1]	98.3	< 100
C[C@@H](c1ccc(-c2cc[nH]c(=O)c2)cc1)N1CC[C@](CC(C)(C)O)(c2ccccc2)CC1=O [EXAMPLE 12, 4-(4-((S)-1-((R)-4-(2-hydroxy-2-methylpropyl)-2-oxo-4-phenylpiperidin-1-yl)ethyl)phenyl)pyridin-2(1H)-one]	95.9	< 100
C[C@@H](c1ccc(Br)cc1)N1CC[C@](CC(C)(C)C(N)=O)(c2ccccc2)CC1=O [EXAMPLE 11, 3-((S)-1-((S)-1-(4-bromophenyl)ethyl)-2-oxo-4-phenylpiperidin-4-yl)-2,2-dimethylpropanamide]	95.5	< 100
